In brackets after ≈: the same amount, converted by molar mass.

In data set [1] the test system is PC 12 cell line. Description: Cytotoxicity assay (CCK-8) on PC 12. The class given is cell-based, rat. Conditions: 20 μM. The procedure: RAW264.7 cells were cultured in 96-well plates at a density of 3 × 10^4 cells/mL in Dulbecco’s modified Eagle’s medium (DMEM, Gibco, Baltimore, MD, USA) with 10% fetal calf serum (Gibco, Baltimore, MD, USA), 100 U/mL penicillin, and 100 μg/mL streptomycin. Plates were incubated in an atmosphere containing 5% CO2 at […]. PC 12 cells were cultured in 96-well plates at a density of 8000 cells/mL in Dulbecco’s modified Eagle’s medium (DMEM, Gibco, Baltimore, MD, USA) with 10% fetal calf serum (Gibco, Baltimore, MD, USA), 100 U/mL penicillin, and 100 μg/mL streptomycin. Plates were incubated in an atmosphere containing 5% CO2 at 37 °C. Cells were treated with different concentrations of test compounds for 48 h. Then, 10 μL CCK-8 solution were added to all the wells. After 4 h incubation, the absorbance at 450 nm of each well was measured in a multiscan photometer.

The subject of data set [2] is LPS-stimulated RAW264.7 cell lines. Description: LPS-induced NO production (Griess) in RAW264.7. Type of data set: cell-based, murine. Conditions: for The production of NO: LPS-stimulated RAW264.7, LPS group 49.86 ± 0.62, control 1.20 ± 0.38; for inhibitory activity against NO production compared with curcumin: 10 μM. The procedure: RAW 264.7 cells were plated in 96-well plates at a density of 1 × 10^4 cells/well and incubated overnight at 37 °C under 5% CO2. […] Dexamethasone (Solarbio, D8040, Beijing, China) was used as the positive control. Then, 24 h later, NO production was determined by measuring the nitrite content using Griess reagents. Fifty microliters of culture supernatants were transferred to 96-well plates and mixed with 50 μL Griess reagent A. After incubation at room temperature for 5 min, the samples were mixed with an equal volume Griess reagent B for another 5 min. The absorbance of each mixture at 540 nm was measured using a microplate reader.
(The Griess reaction detects nitrite, a stable product of nitric oxide.)

The subject of data set [3] is H2O2-stimulated PC 12 cell lines. The data set is described as follows: Protection against H2O2-induced oxidative damage (CCK-8). The class given is cell-based, rat. As to conditions: for viability at 5 µM / viability at 10 µM / viability at 20 µM: Rattus norvegicus; for viability at 5 µM: PC-12, Dose 5 μM; for viability at 5 µM / viability at 10 µM / viability at 20 µM / Cell viability: H2O2-induced oxidative damage, PC 12, H2O2 group 49.69 ± 1.37, control 100; for viability at 10 µM: PC-12, Dose 10 μM; for viability at 20 µM: PC-12, Dose 20 μM; for anti-oxidant capacity compared with curcumin: 10 μM; for anti-oxidant capacity compared with curcumin / cell survival rate (anti-oxidant): H2O2-stimulated PC 12; for Cell viability: in % (unit assumed); for cell survival rate (anti-oxidant): at 20 μM. As for the experimental part: PC 12 cells were seeded in 96-well plates at a density of 8000 cells/well and incubated overnight. […] After incubating under the same conditions for 24 h, 10 μL CCK-8 solution was added to each well. After 2 h incubation, the absorbance of each well was measured at 450 nm using a microplated reader (Multiskan MK-3, Thermo, Waltham, MA, USA).

Data set [4] has as its system PC 12 cell lines. The data set is described as follows: Radiation protection in vitro (CCK-8). Conditions: for radiation protection capacity / radiation protection capability compared with curcumin: 10 μM; for radiation protection capacity: versus radiation group; for Cell viability / viability at 20 µM / viability at 5 µM / viability at 10 µM: radiation 8.0 Gy, PC 12, radiation group 50.22 ± 1.08; for Cell viability: in % (unit assumed); for viability at 20 µM / viability at 5 µM / viability at 10 µM: Rattus norvegicus; for viability at 20 µM: PC-12, Dose 20 μM; for viability at 5 µM: PC-12, Dose 5 μM; for viability at 10 µM: PC-12, Dose 10 μM. Type of data set: cell-based, rat. The procedure:
The rat adrenal pheochromocytoma cells (PC 12) were used for in vitro studies. A Cell Counting Kit-8 (CCK-8, Applygen Technologies Co., Ltd., Beijing, China) assay was used to determine cell viability. […] Cells were irradiated with dose of 8.0 Gy at a dose rate of 0.8 Gy/min. Then, 10 μL CCK-8 solution was added to all the wells. After 4 h incubation, the absorbance at 450 nm of each well was measured in a multiscan photometer.

Data set [5] in a line: Aqueous solubility determination by UV spectrophotometer. Type of data set: physicochemical. As to conditions: water, thermodynamic from solid, saturated solution concentration. As for the experimental part: A UV spectrophotometer was used to test the aqueous solubility of target compounds. Each compound to be tested was prepared into solutions with concentrations of 0.2 M, 0.1 M, 0.05 M, 0.025 M, 0.0125 M, 0.00625 M, and 0.003125 M. The optical density (OD) values of the prepared solutions were measured using an ultraviolet spectrophotometer, and concentration–OD-value standard curves were drawn for each compound to be tested. The saturated solutions of the target compounds were diluted by 5000 times and detected using an ultraviolet spectrophotometer to measure the OD values, respectively. The measured OD values were substituted into the corresponding concentration-OD value standard curve to calculate the diluted concentrations, which were multiplied by 5000 to obtain the saturated solution concentrations of the target compounds.

Consider `CCOc1cc(/C=C/C(=O)CC(=O)/C=C/c2cc(CN(C)C)c(O)c(OC)c2)ccc1O` [Compound 1], for which the “effect on PC 12 cell proliferation” value in data set [1] is “significant promoting effect”. Also, the “The production of NO” value is recorded as 44.55 ± 0.55 in data set [2] (Dose 5 μM), 34.25 ± 0.96 in data set [2] (Dose 10 μM) and 12.30 ± 0.90 in data set [2] (Dose 15 μM). In addition, the viability at 5 µM in data set [3] came out at 63.9 ± 2.86%. The viability at 10 µM in data set [3] stood at 74.7 ± 4.82%. In addition, the viability at 20 µM was 86.4 ± 3.89% in data set [3] and 89.7 ± 8.17% in data set [4]. For the same molecule, the radiation protection capacity entry in data set [4] is on record as “a certain degree of radiation protection capacity”. Moreover, the results for the Cell viability in data set [4] (Dose 5 μM) and in data set [4] (Dose 10 μM) were 47.61 ± 1.20 and 57.30 ± 1.29, respectively.

Take `COc1ccc(/C=C/C(=O)CC(=O)/C=C/c2cc(CN(C)C)c(O)c(OC)c2)cc1OC` [Compound 5]: the “effect on PC 12 cell proliferation” value in data set [1] is recorded as “significant promoting effect”. The “The production of NO” value in data set [2] (Dose 5 μM) turned out to be 34.62 ± 0.76; in data set [2] (Dose 10 μM) it was 16.89 ± 1.33; in data set [2] (Dose 15 μM), 9.97 ± 1.11. Also, in data set [3], the “anti-oxidant capacity compared with curcumin” value is given as “better anti-oxidant capacity”. Also, the viability at 5 µM in data set [3] came out at 71.02 ± 0.56%. Further, in data set [3], the viability at 10 µM amounted to 84.4 ± 1.86%. Besides, the viability at 20 µM in data set [3] was 103 ± 3.36%. Moreover, in data set [4], the radiation protection capacity result is reported as “a certain degree of radiation protection capacity”. For the same molecule, the Cell viability came to 58.70 ± 4.93 in data set [4] (Dose 5 μM), 64.93 ± 4.67 in data set [4] (Dose 10 μM) and 104.23 ± 2.86 in data set [4] (Dose 20 μM).

As for `COc1ccc(/C=C/C(=O)CC(=O)/C=C/c2cc(CN(C)C)c(O)c(OC)c2)cc1OC` [Compound 5a], the “effect on PC 12 cell proliferation” value in data set [1] is on record as “significant promoting effect”. The “inhibitory activity against NO production compared with curcumin” value in data set [2] was “better inhibitory activity”. The “The production of NO” value in data set [2] (Dose 5 μM) turned out to be 33.90 ± 1.94. Moreover, the “The production of NO” value in data set [2] (Dose 10 μM) is recorded as 15.60 ± 2.78. Besides, the “The production of NO” value in data set [2] (Dose 15 μM) was 9.88 ± 0.53. For the same molecule, in data set [3], the “anti-oxidant capacity compared with curcumin” value is given as “better anti-oxidant capacity” and the “cell survival rate (anti-oxidant)” value was 106%. In data set [3] (Dose 5 μM), this molecule displayed a Cell viability of 75.15 ± 5.90. The molecule further yielded a Cell viability in data set [3] (Dose 10 μM) of 84.53 ± 2.36. Moreover, in data set [3] (Dose 20 μM), the Cell viability is on record as 106.17 ± 3.34. For the same molecule, in data set [4] (irradiated PC 12), the “radiation protection capability compared with curcumin” value is on record as “better radiation protection capability”. In data set [4], the radiation protection capacity result is “a certain degree of radiation protection capacity”, the viability at 5 µM was 58.2 ± 1.86%, the viability at 10 µM was determined as 68.7 ± 5.9% and the viability at 20 µM turned out to be 105 ± 5.01%. In data set [5], this molecule returned a solubility of 118 mg/mL (≈ 268 mM).

With `COc1ccc(/C=C/C(=O)CC(=O)/C=C/c2cc(CN(C)C)c(O)c(OC)c2)cc1O` [Compound 11], the “effect on PC 12 cell proliferation” value in data set [1] is recorded as “significant promoting effect”. Also, the results for the “The production of NO” value in data set [2] (Dose 5 μM), in data set [2] (Dose 10 μM) and in data set [2] (Dose 15 μM) were 35.85 ± 0.30, 19.36 ± 1.66 and 7.59 ± 0.35, respectively. The Cell viability came out at 63.24 ± 1.07 in data set [3] (Dose 5 μM), 72.52 ± 0.32 in data set [3] (Dose 10 μM) and 96.33 ± 1.04 in data set [3] (Dose 20 μM). The “cell survival rate (anti-oxidant)” value in data set [3] worked out at 96%. Besides, the radiation protection capacity result in data set [4] is listed as “a certain degree of radiation protection capacity”. Moreover, the viability at 5 µM in data set [4] was found to be 65.09 ± 0.4%. Moreover, the viability at 10 µM in data set [4] turned out to be 84.5 ± 3.4%. In data set [4], the viability at 20 µM was 94.2 ± 4.35%. For the same molecule, in data set [4] (at 20 μM, irradiated PC 12), the “cell survival rate (radiation protection)” value is on record as 94%.

For the molecule `COc1cc(/C=C/C(=O)CC(=O)/C=C/c2cc(C)c(O)cc2C)cc(CN(C)C)c1O` [Compound 12a], in data set [2], the “inhibitory activity against NO production compared with curcumin” value is recorded as “better inhibitory activity”. Besides, the entries for the “The production of NO” value in data set [2] (Dose 5 μM), in data set [2] (Dose 10 μM) and in data set [2] (Dose 15 μM) were 18.38 ± 1.63, 12.76 ± 0.83 and 9.05 ± 0.72, respectively. The “anti-oxidant capacity compared with curcumin” value in data set [3] is “better anti-oxidant capacity”. Also, the viability at 5 µM in data set [3] was 76.3 ± 3.14%. The viability at 10 µM in data set [3] is 81.9 ± 2.3%. The viability at 20 µM in data set [3] was found to be 88.1 ± 2.09%. Moreover, the radiation protection capacity result in data set [4] is “a certain degree of radiation protection capacity”. Also, the values for the Cell viability in data set [4] (Dose 5 μM), in data set [4] (Dose 10 μM) and in data set [4] (Dose 20 μM) were 59.04 ± 1.00, 63.19 ± 1.90 and 77.34 ± 2.18, respectively. The same molecule gave a solubility in data set [5] of 206 mg/mL (≈ 487 mM).

As to `COc1cc(/C=C/C(=O)CC(=O)/C=C/c2c(C)cc(O)cc2C)cc(CN(C)C)c1O` [Compound 13a], the “inhibitory activity against NO production compared with curcumin” value in data set [2] is reported as “better inhibitory activity”. Moreover, the “The production of NO” value in data set [2] (Dose 5 μM) is given as 17.80 ± 2.19; in data set [2] (Dose 10 μM), 9.09 ± 1.21; in data set [2] (Dose 15 μM) it was 5.58 ± 0.11. Besides, the viability at 5 µM in data set [3] is 71.5 ± 2.53%. In addition, in data set [3], the viability at 10 µM was found to be 77.9 ± 3.02%. Further, the viability at 20 µM in data set [3] amounted to 90.2 ± 3.77%. The “radiation protection capability compared with curcumin” value in data set [4] (irradiated PC 12) was “better radiation protection capability”. Also, the radiation protection capacity entry in data set [4] is “a certain degree of radiation protection capacity”. For the same molecule, the Cell viability worked out at 66.55 ± 2.11 in data set [4] (Dose 5 μM), 75.50 ± 1.73 in data set [4] (Dose 10 μM) and 88.50 ± 1.18 in data set [4] (Dose 20 μM). The solubility in data set [5] turned out to be 285 mg/mL (≈ 674 mM).

Consider `COc1cc(/C=C/C(=O)CC(=O)/C=C/c2c(OC)cc(O)cc2OC)cc(CN(C)C)c1O` [Compound 14a], for which the “inhibitory activity against NO production compared with curcumin” value in data set [2] is given as “better inhibitory activity”. Besides, the entries for the “The production of NO” value in data set [2] (Dose 5 μM), in data set [2] (Dose 10 μM) and in data set [2] (Dose 15 μM) were 29.10 ± 0.37, 13.47 ± 0.31 and 7.49 ± 0.40, respectively. Also, the viability at 5 µM in data set [3] was found to be 68 ± 3.05%. In addition, the viability at 10 µM in data set [3] was 77.1 ± 0.64%. Also, in data set [3], the viability at 20 µM came out at 81.9 ± 1.35%. For the same molecule, the “radiation protection capability compared with curcumin” value in data set [4] (irradiated PC 12) is listed as “better radiation protection capability”. The radiation protection capacity result in data set [4] was “a certain degree of radiation protection capacity”. The Cell viability in data set [4] (Dose 5 μM) stood at 64.83 ± 0.66; in data set [4] (Dose 10 μM) it was 68.68 ± 1.31; in data set [4] (Dose 20 μM), 77.66 ± 1.75. The molecule further registered a solubility in data set [5] of 126 mg/mL (≈ 277 mM).

What is called viability is a read-out of living cells in per cent, often relative to untreated cells. Usually solubility stands for the concentration that dissolves in the medium under given conditions. Low readings indicate little dissolved substance, high ones much dissolved substance.
